Laboratory results: ChEMBL document CHEMBL3507680, “University of Dundee, Gates Library screen for HepG2 cell viability”
Several values for one entry are separate records, joined by “and”; a condition that tells them apart may be missing. Equal values may be shown once.

What was measured:
[1] = Human HepG2 cell viability assay in 384 well format; format: toxicity, cell-based; design: dose 125 nL, time 70.5 hour; concentration not given beside the values; settings: HepG2 cells, read-out: Inhibition
[2] = Human HepG2 cell viability dose-response assay; format: toxicity, cell-based

SMILES	cytotoxicity at 70.5 h [1] [%]	further results
C/N=C1/c2cc3cc(OC)ccc3n2CCN1Cc1ccccc1.Cl	61.3	BOTTOM [2]: -4.849 and -8.854; HILLSLOPE [2]: 2.411 and 1.684; TOP [2]: 87.09 and 100; pXC50 [2]: 5.148 and 5.086
CCCc1cc(=O)[nH]c(-n2nc(C3CC3)cc2N)n1	65.9	BOTTOM [2]: 0; HILLSLOPE [2]: 0; TOP [2]: 0; pXC50 [2]: < 4.53
Cc1cnn(CC(C)NCc2ccccc2OCc2cccnc2)c1 (configuration not stated)	-7.82	–
O=C(c1cc(Cl)c2c(c1)OCO2)N1CCCC(n2cncn2)C1 (configuration not stated)	-4.61	–
Cc1cc(C)n(CC2CN(CC(=O)NCc3ccccn3)CCO2)n1 (configuration not stated)	-2.74	–
Cc1cnn(CC2CCCN2Cc2noc(C(C)(C)C)n2)c1 (configuration not stated)	-2.54	–
CCn1cnnc1CNC(=O)N1CCCC1	5.61	–
Cc1nn(C)c(N(C)C)c1CNCc1cccc(Cn2cncn2)c1	-3.12	–
Cc1cnn(CC(C)NCc2ccc(OCc3noc(C)n3)cc2)c1 (configuration not stated)	-0.0911	–
Cc1cnn(CC(C)NCc2ccncc2)c1 (configuration not stated)	0.737	–
Cc1cnn(CC(C)NCc2ccc(OCc3nccn3C)cc2)c1 (configuration not stated)	-5.96	–
Cc1cnn(CC2CCCCN2C(=O)Cc2cn3ccsc3n2)c1 (configuration not stated)	11.4	–
Cc1nc(C2CCCN(C(=O)c3cccc4c3OCCO4)C2)no1 (configuration not stated)	-1.54	–
Cc1nnc2n1CCN(CCOc1cccc(C#N)c1)C2	-4.21	–
CC(NCc1cc(F)ccc1F)c1ccc(OCC(=O)NC2CC2)cc1 (configuration not stated)	-1.77	–
CC(Cc1ccc(Cl)cc1)NC(=O)Nc1cnn(CC(N)=O)c1 (configuration not stated)	-8.4	–
CC(NCc1cccc(Cl)c1)c1ccc(OCC(=O)NC2CC2)cc1 (configuration not stated)	-4.37	–
CCN(Cc1nc2c(cnn2C)c(=O)[nH]1)c1cccc(C)c1	4.24	–
CCN(Cc1nc2c(cnn2C)c(=O)[nH]1)c1ccc(F)cc1	-3.68	–
Cc1ccccc1CC(C)NC(=O)Nc1cnn(CC(N)=O)c1 (configuration not stated)	-0.765	–
COc1ccc(COCC(O)CNC(=O)Cc2ccc(C)cc2)cc1 (configuration not stated)	-2.43	–
O=C(Cc1ccccc1F)N1CCN(Cc2noc(C3CC3)n2)CC1	10.8	–
COc1ccc(COCC(O)CNC(=O)c2ccc(C)c(F)c2)cc1 (configuration not stated)	-1.89	–

SMILES	cytotoxicity at 70.5 h [1] [%]	further results
COc1ccc(COCC(O)CNC(=O)c2ccc(C#N)cc2)cc1 (configuration not stated)	-5.39	–
c1cnn(CC2CN(c3ncnc4[nH]ccc34)CCO2)c1 (configuration not stated)	-0.974	–
COc1ccc(COCC(O)CNC(=O)c2ccncc2)cc1 (configuration not stated)	-1.56	–
c1nc(N2CCOC(Cn3cncn3)C2)c2cc[nH]c2n1 (configuration not stated)	-6.11	–
CCN1CCC(NC(=O)CN2CCCC2Cn2cc(C)cn2)CC1 (configuration not stated)	0.649	–
CCc1ocnc1C(=O)N1CCOC(c2nc(C)n[nH]2)C1 (configuration not stated)	-1.72	–
Cn1ccnc1CN1CCCN(C(=O)COC2CCCCC2)CC1	22.3	–
CC(C)n1ccnc1CN1CCCN(C(=O)CN(C)C2CC2)CC1	-5.01	–
CCn1ccnc1CN1CCCN(C(=O)COC2CCCCC2)CC1	-3.09	–
Cc1ccoc1C(=O)NC1CCN(Cc2cccc3ccccc23)CC1	1.33	–
COc1ccccc1C(=O)N1CCC(Nc2ccc(C)nn2)CC1	-8.98	–
CCc1noc(CN(Cc2cccs2)CC2CCCO2)n1 (configuration not stated)	-1.65	–
CC(=O)NCC1CCN(C(=O)NCCc2ccc(Cl)s2)CC1	-6.89	–
CC(=O)N1CCCN(C(=O)NCc2ccc(Cl)s2)CC1	-3.07	–
CC(C)c1ccc(S(=O)(=O)N2CSCC2C(=O)NCC(F)(F)F)cc1 (configuration not stated)	-7.38	–
Cc1cn2nc(N3CCN(Cc4cc(C)on4)CC3)sc2n1	-2.77	–
CCn1ccnc1CN1CCOC(Cn2cccn2)C1 (configuration not stated)	22.6	–
COc1ccc(C(=O)N2CCC(Nc3cccnn3)CC2)c(F)c1	-3.14	–
COc1ccc(C(=O)N2CCC(Nc3ccc(C)nn3)CC2)cc1	0.696	–
c1cnnc(N2CCCC2CNc2cnc3ccccc3n2)c1 (configuration not stated)	-2.61	–
Cc1ccc(NS(=O)(=O)c2cc3c(c(C(=O)O)c2)OCCO3)cc1C	-5.96	–
O=C(O)c1cc(S(=O)(=O)Nc2cc(Cl)ccc2F)cc2c1OCCO2	23	–
O=C(NCCc1ccc(I)s1)N1CCC1	-2.1	–

SMILES	cytotoxicity at 70.5 h [1] [%]	further results
CC(C)NC(=O)CS(=O)(=O)Cc1cc(Cl)c2c(c1)OCCO2	-1.77	–
CCn1cc(NC(=O)NCC(C)O)cn1 (configuration not stated)	-1.8	–
CCc1nc(CN(CC(N)=O)C(C)C)cs1	18.1	–
CCn1cc(NC(=O)NCC(O)c2ccccc2)cn1 (configuration not stated)	2.91	–
CCOc1ccnc(N2CCN(C(=O)c3cn[nH]c3CC)CC2)n1	-3.19	–
CCNc1cc2c(nn1)CCN(C(=O)CC1CCCCC1)C2	-4.16	–
CCCOc1ccc(CNC2CCCc3c2cnn3CC)cc1OC (configuration not stated)	29.4	–
CS(=O)(=O)c1ccc(CNC(=O)N2CCC(c3ccccc3)CC2)cc1	-2.27	–
O=C(c1ccc(O)cc1)N1CCN(C(=O)c2ccc3c(c2)COC3)CC1	2.44	–
CC(O)CN1CCN(C(=O)c2ccc3c(c2)COC3)CC1 (configuration not stated)	22.6	–
COc1ccc(Cl)cc1C(=O)N1CCCC(n2nc(C)nc2C)C1 (configuration not stated)	27.7	–
CC(C)c1n[nH]c(C2CN(Cc3nnc(C4CC4)o3)CCO2)n1 (configuration not stated)	24.8	–
Cc1nn(C)c(C)c1C1CCCN1Cc1cccc(C(N)=O)c1 (configuration not stated)	4	–
COc1cccc(CN2CCCC2c2c(C)nn(C)c2C)c1 (configuration not stated)	3.04	–
c1ccc(-c2nc(CN3CCCC3Cn3cncn3)cs2)cc1 (configuration not stated)	14.3	–
CCS(=O)(=O)CCN1CCCC1c1noc(C2CC2)n1 (configuration not stated)	27	–
CCc1nc(CN(C(C)=O)C2CCN(Cc3cnc(C)cn3)C2)no1 (configuration not stated)	23.6	–
COc1cccc(OCC(=O)NS(=O)(=O)c2ccc(C)s2)c1	14	–
CC(NC(=O)NCCCc1n[nH]c(N)c1C#N)c1cccs1 (configuration not stated)	44.5	–
CCOc1ncccc1NC(=O)NCC(O)c1ccccc1OC (configuration not stated)	11.2	–
CC(NC(=O)NCCCc1n[nH]c(N)c1C#N)c1ccccc1 (configuration not stated)	26.6	–
COc1cccc(-n2c(C)cc(C(=O)NS(C)(=O)=O)c2C)c1	-1.93	–
COCCOc1ccc(NC(=O)C2CC(=O)N(C)C2)cn1 (configuration not stated)	-4.68	–

SMILES	cytotoxicity at 70.5 h [1] [%]	further results
COCCOc1ccc(NC(=O)C2CCCN(C(N)=O)C2)cn1 (configuration not stated)	4.12	–
Cc1ccc(-c2nnc(CN3CCOC(Cn4cccn4)C3)o2)cc1 (configuration not stated)	-7.48	–
Cc1cnc(NC(=O)c2ccc(-n3ncc(C#N)c3N)cc2)s1	8.89	–
COc1ccc(C2=CCN(C(=O)CN(C)CC(N)=O)CC2)cc1	-2.43	–
Cc1cccc(C2(NC(=O)CCN3C(=O)CCC3=O)CCCC2)c1	-6.61	–
CCN1CCN(C2CCN(Cc3c(C)noc3C)CC2)C1=O	25.5	–
COC(=O)N1CCCC(C(=O)NCc2cc3cccc(OC)c3o2)C1 (configuration not stated)	-6.62	–
CCCC(Nc1c(C#N)c(=O)n(C)c(=O)n1C)c1ccc(F)cc1F (configuration not stated)	9.48	–
CC(=O)c1cccc(OCC(=O)NS(=O)(=O)c2ccc(C)s2)c1	28.6	–
CCOC(=O)C1CCN(Cc2csc(C(C)(C)C)n2)CC1	-2.2	–
COc1cccc2cc(CNC(C)(C)C(=O)N3CCC(O)CC3)oc12	14.1	–
CCc1n[nH]c(C2CN(C(=O)c3cnns3)CCO2)n1 (configuration not stated)	2.09	–
c1ccc(-c2nnc(CNCCn3cccn3)o2)cc1	-1.94	–
Cc1nc(C)n(CC2CCCN2CCCOc2ccc(F)cc2)n1 (configuration not stated)	6.79	–
CNS(=O)(=O)CCCN1CCCC1c1cc(C)on1 (configuration not stated)	1.72	–
O=C(CCc1cccnc1)N1CCCC(n2cncn2)C1 (configuration not stated)	-2.85	–
Cc1cnn(CC2CN(c3ncnc4ccccc34)CCO2)c1 (configuration not stated)	31.7	–
COCc1ccccc1C(=O)N1CCCC(n2nc(C)cc2C)C1 (configuration not stated)	24.9	–
O=C(CCCc1ncc(-c2ccccc2)o1)N1CCN(CCO)CC1	-7.53	–
Cc1cc(C2CCCN(CCCS(=O)(=O)c3ccccc3)C2)n[nH]1 (configuration not stated)	-14	–
O=C(c1cccc2[nH]ncc12)N1CCCC1c1noc(C2CC2)n1 (configuration not stated)	-18.3	–
Cc1nccn1CC1CCCN1S(=O)(=O)Cc1ccccc1F (configuration not stated)	-7.26	–
Cc1nn(C)c(Cl)c1C(=O)NCC(c1ccsc1)N(C)C (configuration not stated)	-21.3	–

SMILES	cytotoxicity at 70.5 h [1] [%]	further results
CCC(CC)C(CNC(=O)Nc1ccc(C)cc1)N1CCOCC1 (configuration not stated)	-15.7	–
Cc1ccc(CNC(=O)NCc2csc(C)n2)cn1	-21.2	–
Cc1ccc(CNC(=O)CCSCc2csc(C)n2)cn1	-11.2	–
N#Cc1ccccc1N1CCCN(C(=O)CCn2cccn2)CC1	-23	–
Cc1cc(CN2CCC(c3ccnn3CCO)CC2)no1	-15.5	–
Cc1noc2ncc(C(=O)N3CCCC3c3ccncc3)cc12 (configuration not stated)	33.6	–
N#Cc1ccccc1N1CCCN(C(=O)CCc2nccs2)CC1	-21.6	–
Cn1cc(CCNC(=O)NCc2nnc3n2CCC3)cn1	-22.4	–
NC(=O)C1CCCN(C(=O)c2cnc3c(cnn3C3CCCC3)c2)C1 (configuration not stated)	33	–
OC(CN1CCN(Cc2nnc(C3CC3)o2)CC1)c1ccccc1 (configuration not stated)	-20.3	–
Cc1cnn(CC2CCCN2CCc2nc3ccccc3c(=O)[nH]2)c1 (configuration not stated)	0.164	–
Cc1cnn(CC2CCCN2C(=O)Cc2n[nH]c3ccccc23)c1 (configuration not stated)	-14.5	–
Cc1cccc(NC2CCN(C(=O)Nc3cc(C)on3)CC2)n1	-14.3	–
CC(O)CN1CCN(C(=O)c2cccn2Cc2ccncc2)CC1 (configuration not stated)	-16.4	–
CCC(CC)C(O)CNC(=O)Nc1cc(C)nn1C (configuration not stated)	-17.8	–
Cc1cnn(CC2CCCCN2Cc2nc(N)c3ccccc3n2)c1 (configuration not stated)	-6.17	–
Cc1cnn(CC2CCCN2C(=O)c2cccc(-n3cnnn3)c2)c1 (configuration not stated)	-28.5	–
Cc1nccn1CC1CCCN1S(=O)(=O)Cc1ccccc1 (configuration not stated)	-22.1	–
Fc1cccc(-n2ccc(CN3CCCCC3Cn3cncn3)n2)c1 (configuration not stated)	-13.3	–
CN(Cc1nc(C2CC2)no1)C1CCCN(c2cccnn2)C1 (configuration not stated)	-19.7	–
Cc1cnn(CC2CCCN2C(=O)c2cccc(CC#N)c2)c1 (configuration not stated)	-22	–
Cc1c(C)c2c(c(C)c1O)CC[C@](C)(C(=O)O)O2 [(R)-TROLOX]	-0.808	–
